Entries after “also recorded” stand apart in the source; their conditions may differ. Like-named read-outs stand apart in the source and are kept apart here.
Experiments:
[1] = system: Cirrhinus mrigala pituitary cells; test: gonadotropin release from carp pituitaries in response to murrel GnRH I and II; format: cell-based; details: 2 μg GnRH fractions
Source text: (§1) Meanwhile Jamaluddin et al, (Gen comp Endocrinology May 1989; 74(2): 190–8) of applicants laboratory developed a very dependable GnRH bioassay. Basic principle of this bioassay is to get the release of GTH from murrel primary pituitary cell culture and determine the amount of GTH released by GTH-RIA. […] Moreover, these two GnRHs act almost equally in different species of carp indicating no species barrier (As shown below in Table 3).

[2] = system: Catla catla pituitary cells; test: as above; format: cell-based; details: 2 μg GnRH fractions
Source text: as §1

[3] = system: Cyprinus carpio pituitary cells; test: as above; format: cell-based; details: 2 μg GnRH fractions
[4] = system: murrel pituitary cells; test: GtH release from murrel pituitary cell incubations, GtH measured by RIA; format: cell-based, Indian Murrel; details: for GtH released: Table 4, 2 μg GnRH fractions, mean ± SEM of five experiments, species of cells not given; for increase gonadotropin release: fold increase of gonadotropin release
Method: Meanwhile Jamaluddin et al, (Gen comp Endocrinology May 1989; 74(2): 190–8) of applicants laboratory developed a very dependable GnRH bioassay. Basic principle of this bioassay is to get the release of GTH from murrel primary pituitary cell culture and determine the amount of GTH released by GTH-RIA. […]
These three acetone fractions were extracted with petroleum ether (40–60° C.) to remove acetone, lipids and other hydrophobic substances. The final precipitates were centrifuged at 8,000 g for 15 min at 4° C. and the residues were stored at −80° C. until further use.

Row | Substance | GtH II released [1] [ng/6 × 10^4 cells] | GtH II released [2] [ng/6 × 10^4 cells] | GtH II released [3] [ng/6 × 10^4 cells] | GnRH activity on the basis of GTH release from in vitro pituitary cell culture [4] | GtH released [4] [ng/6 × 10^4 cells] | increase gonadotropin release [4] | GnRH activity on the basis of GTH release from in vitro pituitary cell culture ([4]; listed as QRP H) | GnRH activity on the basis of GTH release from in vitro pituitary cell culture ([4]; listed as SRP H)
1 | QHWSAWRLPG (channa punctatus) [muGnRH I] | 72.0 ± 2.13 | 74.5 ± 2.32 | 73.8 ± 2.51 | highly active | 73.3 ± 2.2 | about 30 times | GnRH was found to be located | 
2 | QHWSWGILPG (channa punctatus) [muGnRH II] | 80.1 ± 2.61 | 82.6 ± 3.02 | 81.7 ± 3.12 | more active gonadotropin releasing hormone than muGnRH I; also recorded: highly active; also recorded: slightly more active | 79.2 ± 3.12 | about 35 times |  | GnRH was found to be located
3 | des-Gly^10,[D-Ala^6]-LHRH [GnRH superactive analogue, reference compound] |  |  |  |  | 68.0 ± 2.32 |  |  | 
4 | mammalian GnRH: mammalian gonadotropin releasing hormone decapeptide, comparator (QHWSYGLRPG; Gonadoliberin-1; UniProt P01148 24-33, looked up) [reference compound] |  |  |  |  | 49.9 ± 2.02 |  |  | 
